Laboratory results as given in PMC10650415, “Synthesis of Tetracyclic Spirooxindolepyrrolidine-Engrafted Hydantoin Scaffolds: Crystallographic Analysis, Molecular Docking Studies and Evaluation of Their Antimicrobial, Anti-Inflammatory and Analgesic Activities” (Molecules, 2023).
In brackets after ≈: the same amount, converted by molar mass.

How the values were obtained:
S. aureus ATCC 25923 = assay: MBC by the agar method; conditions: Staphylococcus aureus, ATCC25923
Experimental: (§2) To further determine the killing efficiency of the synthesized spiropyrrolidines against selected strains, the minimum bactericidal concentration (MBC) and the minimum fungicidal concentration (MFC) were assessed by the agar method [54].

[1] = tested on: Candida kreusei ATCC 6258; assay: MIC, in vitro micro diffusion method; format: cell-based; conditions: C. krusei ATCC 6258
Source text: (§1) In this part, the spiropyrrolidines 4a–m were selected to be screening for their antimicrobial activities, using in vitro micro diffusion method, against multiple bacterial strains (Staphylocoocus aureus ATCC 25923, Escherichia coli ATCC 25922, Pseudomonas aeruginosa ATCC 27950, Micrococcus luteus NCIMB 8166), and two pathogenic reference yeasts namely Candida albicans ATCC 90028 and Candida kreusei ATCC 6258.

[2] = tested on: Staphylocoocus aureus ATCC 25923; assay: MIC, in vitro micro diffusion method; format: cell-based; conditions: Staphylococcus aureus, ATCC25923; S. aureus ATCC 25923
Source text: as §1

[3] = tested on: Candida albicans ATCC 90028; assay: MIC, in vitro micro diffusion method; format: cell-based; conditions: ATCC90028, C. albicans ATCC 90028
Source text: as §1

E. coli ATCC 25922 = assay: MBC by the agar method
Experimental: as §2

C. kreusei ATCC 6258 = assay: MFC by the agar method; conditions: for MFC/MIC ratio: C. Krusei, ≤ 4 fungicidal, >4 fungistatic; for MFC: Pichia kudriavzevii, ATCC6258
Experimental: as §2

P. aeruginosa ATCC 27950 = assay: MBC by the agar method; conditions: Pseudomonas aeruginosa, ATCC27950
Experimental: as §2

M. luteus NCIMB 8166 = assay: MBC by the agar method; conditions: Micrococcus luteus, NCIMB8166
Experimental: as §2

C. albicans ATCC 90028 = assay: MFC by the agar method; conditions: for MFC/MIC ratio: C. Albicans, ≤ 4 fungicidal, >4 fungistatic; for MFC: Candida albicans, ATCC90028
Experimental: as §2

[4] = target: T1, Lipoxygenase-5 (LOX-5) enzyme (Homo sapiens, UniProt P09917); assay: In vitro lipoxygenase (LOX-5) inhibitory assay; format: biochemical; conditions: mean ± SEM, n = 5; read-out: IC50 (LOX-5 inhibition) (converted)
T1 construct: purchased sigma 437996-500U
T1 sequence (P09917 1-674): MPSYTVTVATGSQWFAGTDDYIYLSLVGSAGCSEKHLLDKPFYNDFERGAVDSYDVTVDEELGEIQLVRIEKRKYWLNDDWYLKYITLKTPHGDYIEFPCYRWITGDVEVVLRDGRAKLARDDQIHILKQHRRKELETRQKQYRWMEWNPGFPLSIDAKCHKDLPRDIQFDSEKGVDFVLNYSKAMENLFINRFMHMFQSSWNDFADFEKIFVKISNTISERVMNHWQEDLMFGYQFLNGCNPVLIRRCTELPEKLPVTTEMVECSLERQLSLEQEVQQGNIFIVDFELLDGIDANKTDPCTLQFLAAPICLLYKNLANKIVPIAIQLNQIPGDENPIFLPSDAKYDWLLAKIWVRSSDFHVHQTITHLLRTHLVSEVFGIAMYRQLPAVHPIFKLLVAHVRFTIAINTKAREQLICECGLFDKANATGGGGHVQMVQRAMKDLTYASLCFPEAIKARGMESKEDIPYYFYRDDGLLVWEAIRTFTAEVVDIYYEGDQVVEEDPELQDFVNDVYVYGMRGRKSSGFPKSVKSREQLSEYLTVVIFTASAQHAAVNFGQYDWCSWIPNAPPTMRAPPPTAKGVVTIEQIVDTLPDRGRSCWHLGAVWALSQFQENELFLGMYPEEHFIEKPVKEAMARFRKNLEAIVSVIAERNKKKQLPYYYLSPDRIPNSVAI
Experimental: Lipoxygenases are a family of monomeric proteins that catalyze oxidation of polyunsaturated fatty acids (PUFA) (linoleic, linolenic and arachidonic acid) to produce hydroperoxides. Fractions’ anti-LOX activity was also measured as inhibition of linoleic acid’s peroxidation to hydroperoxylinoleic acid.
To evaluate the prospects of the newly synthesized spirooxindoles as promising drug candidates, we first studied their inhibitory potency against the Lipoxygenase-5 (LOX-5) enzyme.

[5] = parameters: method as in doi:10.1002/slct.201901228; conditions: read-out: IC50 (anti-inflammatory efficacy); cited from earlier work
[6] = tested on: Micrococcus luteus NCIMB 8166; assay: MIC, in vitro micro diffusion method; format: cell-based; conditions: NCIMB8166, M. luteus NCIMB 8166
Source text: as §1

[7] = tested on: Escherichia coli ATCC 25922; assay: MIC, in vitro micro diffusion method; format: cell-based; conditions: ATCC25922, E. coli ATCC 25922
[8] = Escherichia coli, ATCC25922, E. coli ATCC 25922

Row | Compound | MBC (S. aureus ATCC 25923) [µg/mL] | MIC [1] [µg/mL] | MIC [2] [µg/mL] | MIC [3] [µg/mL] | MBC (E. coli ATCC 25922; [8]) [µg/mL] | MFC/MIC ratio (C. kreusei ATCC 6258) | MFC (C. kreusei ATCC 6258) [µg/mL] | MBC (P. aeruginosa ATCC 27950) [µg/mL] | MBC (M. luteus NCIMB 8166) [µg/mL] | MFC/MIC ratio (C. albicans ATCC 90028) | MFC (C. albicans ATCC 90028) [µg/mL] | melting point [°C] | IC50 [4] [µM] | IC50 [5] [µM] | MIC [6] [µg/mL] | MBC (E. coli ATCC 25922; E. coli ATCC 25922) [µg/mL] | MIC [7] [µg/mL]
1 | O=C1NC(=O)[C@]2(N1)[C@@H](c1ccc(Cl)cc1)[C@H](c1ccccc1)N[C@@]21C(=O)Nc2ccccc21 (racemic) [4e] | 93.8 (≈ 204 µM) | 46.9 (≈ 102 µM) | 46.9 (≈ 102 µM) | 23.4 (≈ 51.1 µM) | 750 (≈ 1630 µM) | ≤ 4 | 46.9 (≈ 102 µM) | 188 (≈ 409 µM) | > 1500 | ≤ 4 | 23.4 (≈ 51.1 µM) | 235 | 3860 |  |  |  | 
2 | O=C1/C(=C/c2cccc(F)c2)CCC[C@@]12[C@H](c1cccc(F)c1)[C@@H]1CSCN1[C@]21C(=O)Nc2ccccc21 [IVc] |  |  |  |  |  |  |  |  |  |  |  |  |  | 2.4 ± 1.3 |  |  | 
3 | CC(C)Cc1ccc(C(C)C(=O)O)cc1 (stereo not shown) [ibuprofen] |  |  |  |  |  |  |  |  |  |  |  |  |  | 11.2 ± 1.9 |  |  | 
4 | O=C1NC(=O)[C@]2(N1)[C@@H](c1ccccc1O)[C@H](c1ccccc1)N[C@@]21C(=O)Nc2ccc(Cl)cc21 (stereo in doubt) [4m] | 93.8 (≈ 197 µM) |  |  |  | 188 to 374 (≈ 395 to 788 µM) | ≤ 4 | 93.8 (≈ 197 µM) | 188 (≈ 395 µM) | 188 (≈ 395 µM) | ≤ 4 | 93.8 (≈ 197 µM) | 223 | 2990 |  | 93.8 (≈ 197 µM) | 375 (≈ 790 µM) | 188 (≈ 395 µM)
